The conditions of data set [1]: oral, after intestinal absorption; cited from earlier work.
A short description of data set [2]: Cell viability test in MT-4 cells (CellTiter Glo). Conditions: human. Format: cell-based. How it is done:
9.3. Treatment of the cells in the cell viability test: parallel tests were carried out using the same method as that in 9.2, except that the 96-well plate containing the compounds of different concentrations were replaced with the blank 96-well plate, and CellTiter Glo was used to determine the cell viability to calculate the CC50 value.
(§1) 9.4. Data analysis and calculation of the inhibition percentage: the activity percentage was calculated using the following formula: Activity (%) =(Raw datacpd−AverageVC)/(AverageCC−AverageVC)*100Cell Viability (%)=Raw datacpd/AverageCC*100
A general note: Cellular ATP, detected with luciferase, serves as a proxy for viable cell number.

For another data set, the system named is HIV-1 IIIB. The experiment in a line: In vitro anti-HIV activity test in MT-4 cells infected with HIV-1 IIIB (CellTiter Glo). Format: cell-based. How it is done: 9.1. Dilution and concentrations of the compounds and the reference compound (CN01813161GS-7340, TDF) were the same as those in example 1.
9.2. In vitro anti-HIV activity test: after MT-4 cells were infected with 24 TCID50HIV-1 IIIB/1×10^5 cells (2.4 TCID50/well) at 37° C. for 1 hour, they were plated in the 96-well plate containing the compounds of different concentrations ([…]) and cultured at 37° C. in 5% CO2 for 5 days. CellTiter Glo was used to determine the activity to calculate the EC50 value.
as §1

A short description of data set [3]: Stability in the simulated intestinal fluid. Format: in vitro ADME. Conditions: 10 μM. The protocol:
(§2) The following stability test were carried out according to the prior art, and the data of the stability test shown in the table were the residue percentages after the test compounds were incubated for different period of time under the test condition.

The nature of another data set: in vitro. In kind it is cell-based. As to conditions: human, HepG2.2.15 cells. The protocol: (§3) The concentration of HBV DNA in the HepG2.2.15 cell supernatant was detected through the real-time fluorescence quantitative PCR (qPCR) method to determine the anti-HBV activity of the compound in the HepG2.2.15 cells, and the effect of the testing compounds to the HepG2.2.15 cell activity was detected through Cell-titer Blue.
(§4) 8.1. Dilution of the compounds: the initial concentration of each compound in the in vitro anti-HBV activity test was 1 μM, with 3-fold serial dilution to 8 concentrations; the initial concentration of each compound in the cytotoxicity test was 100 μM, with 3-fold serial dilution to 8 concentrations; DMSO was used for the dilution of the compound mother liquor. The initial concentrations of the reference compound TDF for the anti-HBV activity test in vitro and the cytotoxicity test were all set at 0.2 μM, with 3-fold serial dilution to 8 concentrations.
(§5) 8.3. Treatment of the cells in the cell viability test: the HepG2.2.15 cells were plated in the 96-well plate (4×10^4 cells/well), and cultured overnight at 37° C. in 5% CO2. On 2nd day, fresh culture solutions containing compounds of different concentrations were added to the culture wells. See Table 3 for the compound distribution. On 5th day, the used culture solutions in the culture wells were sucked and discarded, and fresh culture solutions containing compounds of different concentrations were added. On 8th day, Cell-titer Blue agent was added to each well, and the microplate reader was used to detect the fluorescence value of each well.
(§6) The cell viability percentage was calculated using the following formula: % cell viability=(fluorescence of sample−fluorescence of medium control)/(fluorescence of DMSO control−fluorescence of medium control)[…] 100%
(§7) 9.2 Test method: the test was carried out according to the procedure in example 1.

Data set [4] is described as follows: Stability in the human liver S9. In kind it is in vitro ADME. Conditions: human liver S9, 1 μM. The protocol:
as §2

The test system of the next data set is HBV. Put plainly: Cell based anti-HBV activity test, HBV DNA in HepG2.2.15 cell supernatant by qPCR. Conditions: Hepatitis B virus. How it is done: as §4
8.2. Anti-HBV activity test in vitro: the HepG2.2.15 cells were plated in the 96-well plate (4×10^4 cells/well), and cultured overnight at 37° C. in 5% CO2. On second day, fresh culture solutions containing compounds of different concentrations were added to the culture wells. See Table 2 for the compound distribution. On 5th day, the used culture solutions in the culture wells were sucked and discarded, and fresh culture solutions containing compounds of different concentrations were added. On 8th day, the supernatant in the culture wells was collected for the extraction of HBV DNA in the supernatant. qPCR test was used to detect the concentration of HBV DNA content in the HepG2.2.15 supernatant.
8.4. Data analysis and calculation of the inhibition percentage and relative cell viability: The inhibition percentage was calculated using the following formula: % Inh.=[(HBV quantity of DMSO control−HBV quantity of sample)/HBV quantity of DMSO control]×100%
9.1 Drugs: the dilution method and concentrations of compound 3, the reference compound (CN201380030061.6, and the compound shown in claim 36 (abbreviation: compound 7), and the isomer thereof) were the same as those in example 1.
as §7

Another data set concerns the target hERG K-channel (Homo sapiens, UniProt Q12809). The experiment in a line: hERG manual whole-cell patch clamp in CHO cells (cardiotoxicity study). Conditions: IC50, hERG current, room temperature. The protocol:
The CHO cells obtained from AVivaBiosciences that could stably express the hERG K-channel were used in the test, and the cells were incubated at 37° C. in 5% CO2 and under constant humidity.
The final concentration of DMSO in the extracellular fluid was not higher than 0.30%.
The whole-cell patch clamp technique was used on the Multiclamp patch-clamp amplifier to test the compound at room temperature, the output signal was digitalized using the DIgiDAta 1440 A/D-D/A plate, and the Pclamp10 software was used for the control of the recording. The minimum sealing resistance was set at 500 MOh/ms, and the minimum specific hERG current was set at 0.4 nA for quality control.
Clampfit (V10.2, Molecular Devices), Excel 2003 and GraphPad Prism 5.0 were used for the data analysis. The calculation formula of the current: I/Icontrol=Bottom+(Top−Bottom)/(1+10^((LogIC50−Log C)*Hillslope
A general note: hERG is a cardiac potassium channel; its block is linked to QT prolongation.

Data set [5] is described as follows: Stability in the simulated gastric fluid. Format: in vitro ADME. As to conditions: 10 μM. How it is done:
as §2

The nature of data set [6]: Stability in the human blood. Format: in vitro ADME. Conditions: 2 μM. How it is done: as §2
The test system of the next data set is HepG2.2.15 cells. Put plainly: in vitro. Format: cell-based. Conditions: comparative test, Table 4. The protocol:
as §3, §4, §5, §6, §7

[7] abbreviates: Human immunodeficiency virus 1, MT4, 120 h, MT-4 cells infected with HIV-1 IIIB, 5 days, read-out: EC50.
The mark [8] stands for this setting: HepG2.2.15, HepG2.2.15 cells, comparative test, Table 4, read-out: EC50.

The text below walks through data of patent US10233202B2, “Tenofovir monobenzyl ester phosphamide prodrug, preparation method and use thereof” (JIANGSU TASLY DIYI PHARMACEUTICAL CO., LTD., priority 2015, dated 2019).

Structures can show the parent of a compound that is named as a salt. Where two headings read alike, the source gives them in different places. Where only a bound is given, the exact number is not on record here.

hERG K-channel, sequence (Q12809 whole entry): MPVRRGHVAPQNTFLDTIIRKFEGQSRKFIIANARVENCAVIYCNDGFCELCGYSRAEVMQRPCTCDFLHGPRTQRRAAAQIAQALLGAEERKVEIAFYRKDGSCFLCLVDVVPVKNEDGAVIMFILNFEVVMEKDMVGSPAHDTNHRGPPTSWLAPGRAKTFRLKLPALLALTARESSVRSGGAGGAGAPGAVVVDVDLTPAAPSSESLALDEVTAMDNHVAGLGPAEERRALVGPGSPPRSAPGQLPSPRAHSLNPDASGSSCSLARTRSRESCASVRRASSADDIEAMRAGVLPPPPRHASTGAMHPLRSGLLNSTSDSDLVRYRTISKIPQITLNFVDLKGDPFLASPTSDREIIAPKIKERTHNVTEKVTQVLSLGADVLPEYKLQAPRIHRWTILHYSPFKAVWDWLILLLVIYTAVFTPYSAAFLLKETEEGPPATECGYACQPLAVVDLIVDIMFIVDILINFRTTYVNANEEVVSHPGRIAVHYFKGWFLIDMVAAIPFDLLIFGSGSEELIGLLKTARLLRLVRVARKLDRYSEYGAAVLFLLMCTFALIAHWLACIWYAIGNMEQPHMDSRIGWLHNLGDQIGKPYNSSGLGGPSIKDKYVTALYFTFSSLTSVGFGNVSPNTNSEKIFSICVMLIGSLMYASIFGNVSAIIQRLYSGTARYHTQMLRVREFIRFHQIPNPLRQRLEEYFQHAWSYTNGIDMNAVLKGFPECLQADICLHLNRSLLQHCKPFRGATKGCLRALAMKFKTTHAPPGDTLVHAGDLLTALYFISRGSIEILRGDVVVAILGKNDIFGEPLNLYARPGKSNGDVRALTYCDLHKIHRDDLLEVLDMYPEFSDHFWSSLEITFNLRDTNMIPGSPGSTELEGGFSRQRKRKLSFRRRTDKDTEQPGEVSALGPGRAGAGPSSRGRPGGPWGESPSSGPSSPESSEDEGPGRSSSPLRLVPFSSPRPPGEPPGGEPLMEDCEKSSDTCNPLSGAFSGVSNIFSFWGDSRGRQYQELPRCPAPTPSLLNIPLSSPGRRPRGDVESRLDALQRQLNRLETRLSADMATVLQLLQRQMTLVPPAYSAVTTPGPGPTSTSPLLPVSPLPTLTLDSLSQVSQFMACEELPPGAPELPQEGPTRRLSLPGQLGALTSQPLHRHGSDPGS

`CC(C)OC(=O)OCOP(=O)(CO[C@H](C)Cn1cnc2c(N)ncnc21)OCOC(=O)OC(C)C` [TDF, Tenofovir Disoproxil Fumarate]: in data set [1], the “fraction excreted out of the body in original form” value is given as approximately 80%; the “fraction metabolized and activated into the Tenofovir parent drug under the action of esterase” value is given as “less than 20%”. This compound also yielded a CC50 at 5 days in data set [2] of 21.3 µM. In addition, the EC50 in the data set with HIV-1 IIIB (setting [7]) came to 0.017 µM.
On to `Cc1ccccc1CO[P@@](=O)(CO[C@H](C)Cn1cnc2c(N)ncnc21)N[C@@H](C)C(=O)OC(C)C` [Compound 7b], for which, in data set [3], the “% 0 min (residue percentage)” value is listed as 100%, the “% 60 min (residue percentage)” value is 31.28%, the “% 120 min (residue percentage)” value was 8.33% and the “% 360 min (residue percentage)” value was 0.09%. The “% 1440 min (residue percentage)” value in [3] was 0.00%. In addition, the CC50 in “in vitro” (comparative test, Table 4) is more than 100 µM. Further, in [4], the “CLlint(s9)” value is 147.4 µL/min/mg, the half-life at 1 μM is 4.7 min and the “Remaining (T = 60 min)” value came to 5%. Further, the “CLlint(s9)” value in data set [4] (scaled per kg) stood at 0.519 mL/min/kg. The same compound showed a CC50 at 5 days in [2] of 14.7 µM. Moreover, in the data set with HBV (setting [8]), the EC50 is 0.275 µM. Moreover, on hERG K-channel, the IC50 is more than 10 µM. For the same compound, the EC50 in the data set on HIV-1 IIIB (setting [7]) is 0.0837 µM. For the same compound, in data set [5], the “% 0 min (residue percentage)” value is 100%, the “% 60 min (residue percentage)” value is 82.76%, the “% 120 min (residue percentage)” value is 51.39% and the “% 360 min (residue percentage)” value is given as 13.16%. Further, the “% 1440 min (residue percentage)” value in data set [5] is 0.00%. In [6], the “% 0 min (residue percentage)” value worked out at 100%, the “% 10 min (residue percentage)” value is 93.5%, the “% 30 min (residue percentage)” value is recorded as 91.6% and the “% 60 min (residue percentage)” value was 90.5%. Moreover, in data set [6], the “% 120 min (residue percentage)” value is 90.1%.
`CC(C)OC(=O)[C@H](C)N[P@](=O)(CO[C@H](C)Cn1cnc2c(N)ncnc21)Oc1ccccc1` [GS-7340]: in data set [3], the “% 0 min (residue percentage)” value is listed as 100%, the “% 60 min (residue percentage)” value is 30.09%, the “% 120 min (residue percentage)” value is given as 6.22% and the “% 360 min (residue percentage)” value is 0.06%. In addition, in [3], the “% 1440 min (residue percentage)” value is 0.00%. Besides, the CC50 at 6 days in “in vitro” (comparative test, Table 4) was more than 100 µM. In [4], the “CLlint(s9)” value was 211.0 µL/min/mg, the half-life at 1 μM is 3.3 min and the “Remaining (T = 60 min)” value came out at 4%. Further, the “CLlint(s9)” value in data set [4] (scaled per kg) was 0.7427 mL/min/kg. The same compound displayed a CC50 at 5 days in [2] of 13.3 µM. This compound gave an EC50 in the data set with HBV (HepG2.2.15) of 0.0178 µM. Further, the IC50 against hERG K-channel is more than 10 µM. For the same compound, the response in the data set with HIV-1 IIIB (Human immunodeficiency virus 1, IIIB, MT4, 120 h) was half-maximal at 0.0143 µM (EC50). Also, in [5], the “% 0 min (residue percentage)” value is given as 100%, the “% 60 min (residue percentage)” value was 95.40%, the “% 120 min (residue percentage)” value is given as 66.36% and the “% 360 min (residue percentage)” value was 23.41%. In addition, the “% 1440 min (residue percentage)” value in data set [5] was 0.19%. Also, in [6], the “% 0 min (residue percentage)” value is 100%, the “% 10 min (residue percentage)” value is recorded as 93.2%, the “% 30 min (residue percentage)” value was 91.0% and the “% 60 min (residue percentage)” value is recorded as 90.3%. For the same compound, the “% 120 min (residue percentage)” value in data set [6] is on record as 90.0%.
As for `CC(C)OC(=O)[C@H](C)N[P@@](=O)(CO[C@H](C)Cn1cnc2c(N)ncnc21)OCc1ccccc1` (single isomer, unassigned) [Compound 3a], in [3], the “% 0 min (residue percentage)” value is on record as 100%, the “% 60 min (residue percentage)” value is recorded as 53.62%, the “% 120 min (residue percentage)” value is 23.45% and the “% 360 min (residue percentage)” value is 1.26%. In addition, in data set [3], the “% 1440 min (residue percentage)” value was 0.00%. Further, the CC50 in “in vitro” (Cell-titer Blue on 8th day, Table 3) is more than 100 µM. Moreover, in the data set with HepG2.2.15 cells, the CC50 is more than 100 µM. For the same compound, in data set [4], the “CLlint(s9)” value amounted to 70.0 µL/min/mg, the half-life at 1 μM stood at 9.9 min and the “Remaining (T = 60 min)” value is listed as 6%. Moreover, the “CLlint(s9)” value in data set [4] (scaled per kg) came out at 0.2464 mL/min/kg. In data set [2], this compound had a CC50 at 5 days of 22.5 µM. For the same compound, the EC50 in the data set on HBV (setting [8]) amounted to 0.00339 µM. In addition, on hERG K-channel, the half-inhibitory concentration (IC50) is more than 10 µM. Also, the EC50 with HIV-1 IIIB (setting [7]) is 0.00513 µM. Also, in [5], the “% 0 min (residue percentage)” value is given as 100%, the “% 60 min (residue percentage)” value is given as 85.40%, the “% 120 min (residue percentage)” value is given as 58.07% and the “% 360 min (residue percentage)” value was 14.41%. Besides, the “% 1440 min (residue percentage)” value in data set [5] is recorded as 0.00%. Besides, in [6], the “% 0 min (residue percentage)” value amounted to 100%, the “% 10 min (residue percentage)” value is recorded as 97.4%, the “% 30 min (residue percentage)” value worked out at 98.9% and the “% 60 min (residue percentage)” value is recorded as 97.8%. For the same compound, the “% 120 min (residue percentage)” value in [6] turned out to be 94.5%.

As a reminder, the CC50 is the concentration that lowers cell viability or growth by half. A high value points to better tolerance by the cells. Usually EC50 stands for the concentration needed to bring the measured effect to its halfway point. Usually half-life stands for the time in which the quantity being followed falls by half. The low end stands for fast loss, the high end for slow loss. A word on the IC50: it is the concentration that inhibits the measured activity by half.
